Experimental data published in the Deep4Chem optical property database.
Each block holds one compound with its values, some of them ahead of it.

Assay: solvent given as SMILES

absorption maximum (in ClCCl): 403 nm
Structure (SMILES): C[Si]1(C)c2cc(C#Cc3ccccc3)ccc2C=Cc2ccc(C#Cc3ccccc3)cc21

absorption maximum (in ClC(Cl)Cl): 384 nm
Structure (SMILES): O=C1[C@@H]2[C@H](C(=O)N1c1cccc3cc4ccccc4cc13)[C@@H]1C=C[C@H]2C1

absorption maximum (in ClCCl): 438 nm
Structure (SMILES): Cc1cc(-c2cccc3ccccc23)cc(C)[o+]1

absorption maximum (in CO): 522 nm
absorption maximum (in ClC(Cl)Cl): 561 nm
Structure (SMILES): Cc1nc2c(ccc3c2sc(/C=C/c2ccc(N(c4ccccc4)c4ccccc4)cc2)[n+]3C)s1

absorption maximum (in CCO): 557 nm
absorption maximum (in O): 567 nm
Structure (SMILES): O=C(O)COc1cccc(OCC(=O)O)c1-c1c2ccc(=[N+]3CCCCC3)cc-2oc2cc(N3CCCCC3)ccc12

absorption maximum (in C1CCOC1): 366 nm
Structure (SMILES): N#C/C(=C\c1ccc(C=C(c2ccccc2)c2ccccc2)cc1)c1ccccc1

absorption maximum (in C1CCOC1): 352 nm
Structure (SMILES): C(=C(c1ccccc1)c1ccccc1)c1ccc(C=C(c2ccccc2)c2ccccc2)cc1

absorption maximum (in CCO): 462 nm
Structure (SMILES): CCCCOC(=O)/C(C#N)=C1\C(=O)C([O-])=C1C=C1N(C)c2ccccc2C1(C)C

absorption maximum (in CC#N): 336 nm
Structure (SMILES): Cc1cc(=O)c2c(ccc3ccc(O)cc32)o1

absorption maximum (in CCCCCCC): 408 nm
Structure (SMILES): c1cc2c3c(cccc3c1)-c1c-2ccc2ccc3ccccc3c12

absorption maximum (in C1COCCO1): 358 nm
absorption maximum (in CC#N): 359 nm
absorption maximum (in CO): 362 nm
absorption maximum (in ClCCl): 362 nm
Structure (SMILES): COC(=O)c1nc2cnc(N(C)C)nc2n1Cc1ccccc1

absorption maximum (in C1CCOC1): 409 nm
Structure (SMILES): COc1cc2c(cc1-c1ccc(C#N)cc1)Cc1c3c(c4c(c1-2)-c1cc(OC)c(-c2ccc(C#N)cc2)cc1C4)C(=O)N(CCC(C)C)C3=O

absorption maximum (in CC1CCCO1): 598 nm
Structure (SMILES): CC1=CC(C)=[N+]2C1=C(c1ccc(C)cc1)c1c(C)cc(/C=C/c3ccc4ccc5cccc6ccc3c4c56)n1[B-]2(F)F

absorption maximum (in C1CCOC1): 463 nm
Structure (SMILES): CC(C)(C)c1ccc(C2=C(c3ccc(N(c4ccccc4)c4ccccc4)cc3)S(=O)(=O)c3c2sc(-c2ccc(N(c4ccccc4)c4ccccc4)cc2)c3-c2ccc(C(C)(C)C)cc2)cc1

absorption maximum (in C1CCOC1): 431 nm
Structure (SMILES): CCN(CC)c1ccc(C(=C(c2ccc(B(c3c(C)cc(C)cc3C)c3c(C)cc(C)cc3C)cc2)c2ccc(B(c3c(C)cc(C)cc3C)c3c(C)cc(C)cc3C)cc2)c2ccc(N(CC)CC)cc2)cc1

absorption maximum (in CO): 332.42 nm
Structure (SMILES): CCC1(CC)c2cc(-c3ccc(-c4ccc5c(c4)C(CC)(CC)c4cc(C(C)(C)C)ccc4-5)cc3)ccc2-c2ccc(C(C)(C)C)cc21

absorption maximum (in C1CCOC1): 396 nm
absorption maximum (in CN(C)C=O): 390 nm
Structure (SMILES): O=C(O)c1ccc(C(=O)O)c2cc3ccccc3cc12

absorption maximum (in ClCCl): 355 nm
Structure (SMILES): COc1cc(OC)cc(C2=CC(c3ccccc3)=C(c3ccccc3)C2)c1

absorption maximum (in CC#N): 397 nm
Structure (SMILES): COc1cccc(-c2nc3c([nH]2)C2=CC(=O)S[C@]2(C)[C@@]2(C)SC(=O)C=C32)c1OC

absorption maximum (in CC#N): 391 nm
Structure (SMILES): Cn1c(-c2ccc(-c3nc(-c4ccccc4)c(-c4ccccc4)n3C)s2)nc(-c2ccccc2)c1-c1ccccc1

absorption maximum (in C1CCOC1): 585 nm
Structure (SMILES): CC1=[N+]2C(=C(c3ccccc3)c3ccc(/C=C/c4ccc(C(=C(c5ccccc5)c5ccccc5)c5ccccc5)cc4)n3[B-]2(F)F)C=C1

absorption maximum (in CO): 374 nm
Structure (SMILES): O=C(O)CCCc1cc2ccc3cccc4ccc(c1)c2c34

absorption maximum (in CCO): 515 nm
Structure (SMILES): CN1C(=CC2=C([O-])C(=O)C2=C(C#N)C#N)C=Cc2ccccc21

absorption maximum (in C1CCOC1): 408 nm
absorption maximum (in CC#N): 405 nm
absorption maximum (in CCO): 414 nm
absorption maximum (in CCOC(C)=O): 407 nm
absorption maximum (in ClCCl): 410 nm
absorption maximum (in c1ccccc1): 422 nm
Structure (SMILES): CC1(C)CC(/C=C/c2ccc(-n3c4ccccc4c4ccccc43)cc2)=CC(=C(C#N)C#N)C1

absorption maximum (in C1COCCO1): 331 nm
absorption maximum (in CC#N): 330 nm
absorption maximum (in CO): 333 nm
absorption maximum (in ClCCl): 326 nm
absorption maximum (in O): 331 nm
Structure (SMILES): N#Cc1nc2cnc(N)nc2n1Cc1ccccc1

absorption maximum (in ClCCl): 305.5 nm
Structure (SMILES): C#Cn1c(-c2cc(-c3nc4ccccc4n3C#C)cc(-c3nc4ccccc4n3C#C)c2)nc2ccccc21

absorption maximum (in CC#N): 378 nm
Structure (SMILES): CCOC(=O)c1c2c3c(ccc(Cl)c3c3cc4c(cc13)[Si](C)(C)O[Si]4(C)C)N(C)C2=O

More lines, now with the values behind:

Structure (SMILES): Cc1ccc2c(c1)C1(c3ccccc3Oc3ccccc31)c1cc(C)ccc1N2c1ccc(-c2nc(-c3ccccc3)cc(-c3ccccc3)n2)cc1
absorption maximum (in Cc1ccccc1): 378 nm

Structure (SMILES): CCCCCCC(CCCCCC)N1C(=O)c2cccc3c(-c4ccc(-c5ccc(OC)cc5)cc4)ccc(c23)C1=O
absorption maximum (in CCCCCC): 354 nm
absorption maximum (in CCCCCCCCCCCCCC): 357.6 nm
absorption maximum (in CCCCCCCCCCCO): 369.4 nm
absorption maximum (in CCCCO): 366 nm
absorption maximum (in CN(C)C=O): 369 nm
absorption maximum (in Cc1ccccc1): 364.8 nm
absorption maximum (in ClC(Cl)Cl): 364.4 nm

Structure (SMILES): CC(C)(C)c1ccc2c(c1)c1cc(C(C)(C)C)ccc1n2-c1ccc(N(c2ccc(-c3ccc(-c4ccc(-c5ccc(-c6ccc(N(c7ccc(-n8c9ccc(C(C)(C)C)cc9c9cc(C(C)(C)C)ccc98)cc7)c7ccc(-n8c9ccc(C(C)(C)C)cc9c9cc(C(C)(C)C)ccc98)cc7)cc6)cc5)c5nsnc45)cc3)cc2)c2ccc(-n3c4ccc(C(C)(C)C)cc4c4cc(C(C)(C)C)ccc43)cc2)cc1
absorption maximum (in ClCCl): 422 nm

Structure (SMILES): F[B-]1(F)n2cccc2C(c2c3ccccc3c(-c3ccccc3)c3ccccc23)=C2C=CC=[N+]21
absorption maximum (in CC#N): 502 nm
absorption maximum (in CCCCCC): 509 nm
absorption maximum (in CCO): 504 nm
absorption maximum (in CN(C)C=O): 506 nm
absorption maximum (in Cc1ccccc1): 509 nm
absorption maximum (in ClCCl): 506 nm

Structure (SMILES): C/C=C/C=C/C1=NC(=C\c2ccc([O-])cc2)/C(=O)N1C
absorption maximum (in O): 482 nm

Structure (SMILES): Nc1cc2oc3cc(O)c(F)cc3c(=O)c2cc1F
absorption maximum (in CCO): 366 nm

Structure (SMILES): CCC1=C(C)C2=Cc3c4ccccc4c4n3[B-](c3ccc5ccc6cccc7ccc3c5c67)(Oc3ccccc3-4)[N+]2=C1C (stereo not given)
absorption maximum (in CC#N): 622 nm
absorption maximum (in CCCCCC): 627 nm
absorption maximum (in Cc1ccccc1): 630 nm
absorption maximum (in ClCCl): 628 nm

Structure (SMILES): Nc1ccc(C#Cc2ccc3ccc4ccc(C#Cc5ccc(N)cc5)c5ccc2c3c45)cc1
absorption maximum (in C1COCCO1): 420 nm
absorption maximum (in CC(C)=O): 421 nm
absorption maximum (in CCCCCC): 421 nm
absorption maximum (in CCCCCCO): 421 nm
absorption maximum (in CCO): 419 nm
absorption maximum (in CCOC(C)=O): 419 nm
absorption maximum (in CO): 415 nm
absorption maximum (in Cc1ccccc1): 417 nm
absorption maximum (in ClCCl): 417 nm

Structure (SMILES): Cc1cc(=O)oc2c3c4c(cc12)CCCN4CCC3
absorption maximum (in C1CCCCC1): 361 nm
absorption maximum (in CC#N): 380 nm
absorption maximum (in CCO): 387 nm
absorption maximum (in O): 396 nm

Structure (SMILES): COc1ccc(-c2cc(-c3ccc(C)cc3)nc3c(C#N)c(N4CCCC4)nc(N)c23)cc1
absorption maximum (in CC#N): 418 nm
absorption maximum (in CC(C)=O): 420 nm
absorption maximum (in CC(C)O): 414 nm
absorption maximum (in CO): 414 nm
absorption maximum (in ClC(Cl)Cl): 418 nm
absorption maximum (in ClCCl): 422 nm
absorption maximum (in c1ccccc1): 424 nm

Structure (SMILES): O=S(=O)([O-])c1ccc2c([O-])cc(S(=O)(=O)[O-])cc2c1
absorption maximum (in O): 350 nm

Structure (SMILES): COCCOCCOCCOCC(COCCOCCOCCOC)Oc1cc(/C=C/c2ccc(/C=C(\C#N)c3ccccc3)cc2)c(OC(COCCOCCOCCOC)COCCOCCOCCOC)cc1/C=C/c1ccc(/C=C(\C#N)c2ccccc2)cc1
absorption maximum (in ClCCl): 433 nm

Structure (SMILES): CCCCCCCCCCCCCCCCCCOc1ccc(C#Cc2cc3nc4c(OCCCCCCCCCCCC)cc5c6cc(OCCCCCCCCCCCC)c(OCCCCCCCCCCCC)cc6c6cc(OCCCCCCCCCCCC)c(OCCCCCCCCCCCC)cc6c5c4nc3cc2C#Cc2ccc(OCCCCCCCCCCCCCCCCCC)cc2)cc1
absorption maximum (in ClC(Cl)Cl): 487 nm

Structure (SMILES): COc1ccc(C2=CC3=C(c4c(C)cc(C)cc4C)c4cc(-c5ccc(OC)cc5)c(-c5ccc(OC)cc5)n4[B-](F)(F)[N+]3=C2c2ccc(OC)cc2)cc1
absorption maximum (in C1CCCCC1): 621 nm
absorption maximum (in C1CCOC1): 621 nm
absorption maximum (in CC#N): 608 nm
absorption maximum (in Cc1ccccc1): 625 nm
absorption maximum (in ClCCl): 616 nm

Structure (SMILES): CCCCCCCCCCCCOc1cc2c3c(ccc4c5c(OC6CCC(C(C)(C)C)CC6)cc6c7c(ccc(c1c34)c75)C(=O)N(C1CCCCC1)C6=O)C(=O)N(C1CCCCC1)C2=O (stereo not given)
absorption maximum (in ClC(Cl)Cl): 558 nm

Structure (SMILES): CCCCCCCCCCC1(CCCCCCCCCC)c2cc(N3C(=O)c4ccc5c6ccc7c8c(ccc(c9ccc(c4c59)C3=O)c86)C(=O)N(c3ccc4c(c3)C(CCCCCCCCCC)(CCCCCCCCCC)c3cc(N(c5ccccc5)c5ccccc5)ccc3-4)C7=O)ccc2-c2ccc(N(c3ccccc3)c3ccccc3)cc21
absorption maximum (in Cc1ccccc1): 528 nm
absorption maximum (in ClCCl): 527 nm

Structure (SMILES): CN(C)c1ccc(C2=Nc3scc(-c4ccc(C#N)cc4)[n+]3[B-](F)(F)O2)cc1
absorption maximum (in C1CCOC1): 411 nm
absorption maximum (in CC#N): 411 nm
absorption maximum (in Cc1ccccc1): 414 nm
absorption maximum (in ClCCl): 415 nm

Structure (SMILES): CN(C)c1ccc(/C=C/C=C/c2nc3ccccc3o2)cc1
absorption maximum (in C1COCCO1): 411 nm
absorption maximum (in CC#N): 410 nm
absorption maximum (in CC(C)=O): 409 nm
absorption maximum (in CCCCCC): 401 nm
absorption maximum (in CCCCO): 417 nm
absorption maximum (in CCCO): 417 nm
absorption maximum (in CCO): 417 nm
absorption maximum (in CN(C)C=O): 419 nm
absorption maximum (in CO): 417 nm
absorption maximum (in Cc1ccccc1): 413 nm
absorption maximum (in ClC(Cl)(Cl)Cl): 406 nm
absorption maximum (in ClC(Cl)Cl): 414 nm
absorption maximum (in ClCCl): 415 nm
absorption maximum (in OCC(O)CO): 424 nm
absorption maximum (in OCCO): 424 nm
absorption maximum (in c1ccccc1): 411 nm

Structure (SMILES): CC(C)[Si](C#Cc1c2ccccc2c(C#Cc2c3ccccc3c(C#Cc3c4ccccc4c(C#Cc4c5ccccc5c(C#C[Si](C(C)C)(C(C)C)C(C)C)c5ccccc45)c4ccccc34)c3ccccc23)c2ccccc12)(C(C)C)C(C)C
absorption maximum (in Cc1ccccc1): 582 nm

Structure (SMILES): c1ccc(-c2nc(-c3ccccc3)nc(-c3ccc(N4c5ccccc5[Si](c5ccccc5)(c5ccccc5)c5ccccc54)cc3)n2)cc1
absorption maximum (in Cc1ccccc1): 376.66 nm

Structure (SMILES): COc1ccc(-c2nc(C(C)=O)c(C)o2)cc1
absorption maximum (in CC#N): 278 nm
absorption maximum (in CCCCCC): 278 nm
absorption maximum (in CCO): 277 nm
absorption maximum (in CCOC(C)=O): 279 nm
absorption maximum (in CCOCC): 276 nm
absorption maximum (in ClCCl): 277 nm

Structure (SMILES): N#Cc1ccc(C[C@H](N)C(=O)O)cc1
absorption maximum (in C1CCOC1): 236.81 nm
absorption maximum (in CCO): 233.58 nm
absorption maximum (in O): 233.33 nm
